Values of other authors in patent US20240123021A1, “PHARMACEUTICAL COMPOSITIONS” (EXTROVIS AG, priority 2021, published 2024).
Square brackets hold non-standard residues; d marks the D form. Peptide text beside a SMILES is read from it. dPhe(4-Cl) = N[C@H](Cc1ccc(Cl)cc1)C(=O)O; d2Nal = N[C@H](Cc1ccc2ccccc2c1)C(=O)O; dCit = NC(=O)NCCC[C@@H](N)C(=O)O; d3Pal = N[C@H](Cc1cccnc1)C(=O)O

Conditions: according to Cetrotide EPAR scientific discussion

| aggregation and gelling in solution (in solution) | Compound | stability (thermal, aqueous solution) |
| --- | --- | --- |
|  | CC(=O)N[C@H](Cc1ccc2ccccc2c1)C(=O)N[C@H](Cc1ccc(Cl)cc1)C(=O)N[C@H](Cc1cccnc1)C(=O)N[C@@H](CO)C(=O)N[C@@H](Cc1ccc(O)cc1)C(=O)N[C@H](CCCNC(N)=O)C(=O)N[C@@H](CC(C)C)C(=O)N[C@@H](CCCNC(=N)N)C(=O)N1CCC[C@H]1C(=O)N[C@H](C)C(N)=O [Cetrorelix acetate] (Ac-[d2Nal][dPhe(4-Cl)][d3Pal]SY[dCit]LRP[dA]-NH2) | thermally labile and unstable in aqueous solution |
| tends to aggregate and gel | Acetyl-D-3-(2′-naphtyl)-alanine-D-4-chlorophenylalanine-D-3-(3′-pyridyl)alanine-L-serine-L-tyrosine-D-citruline-L-leucine-L-arginine-L-proline-D-alanine-amide [Cetrorelix] |  |
